Structures are written as SMILES.

This data set is described as follows: gradient 5% acetonitrile 3 min, to 50% in 2 min, to 85% in 15 min, held 3 min, 100 µL/min. The note with it: column: Zorbax Extend-C18 2.1 x 50 mm; eluents: water / acetonitrile, 0.1% formic acid. The essentials:
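Mixtures of ~100 pure standards were chromatographed on a Zorbax Extend-C18 column (2.1 × 50 mm, 1.8 μm) at 100 μL/min using water and acetonitrile, each with 0.1% formic acid. Detection used a quadrupole time-of-flight mass spectrometer in positive and negative ionization mode, and data collection spanned 3 months. Retention time was obtained from adduct peaks picked computationally and each checked manually.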
Take `CCn1c(=O)c2ccccc2n(Cc2nc(-c3ccccc3)no2)c1=O`: the RP-LC retention time was 991 s. Molecule `COc1ccc(C(C)NC(=O)c2cn3cc(C)ccc3n2)cc1OC` (centres undefined) gave an RP-LC retention time of 630 s. Under `O=C1NCCCn2cc(S(=O)(=O)N3CCN(c4ccccc4F)CC3)cc21` stands 742 s. The molecule `O=C(Nc1cccc(Cl)c1)C1CCCN(C(=O)Cc2cccc3ccccc23)C1` (centres undefined) yielded an RP-LC retention time of 1070 s. The molecule `CCSc1nc2ccc(NS(=O)(=O)c3ccccc3Cl)cc2s1` showed an RP-LC retention time of 1030 s. Take `CCOC(=O)C1CCN(c2nc(-c3ccc(OC)cc3)nc3ccccc23)CC1`: the RP-LC retention time is 790 s. As for `COc1ccc(CNc2nc3ccncc3n(C(C)C)c2=O)cc1`, the RP-LC retention time came out at 652 s.

Regarding `CCc1ccc(NC(=O)C2CCN(S(=O)(=O)c3cc(C(=O)N4CCCC4)cs3)CC2)cc1`, the RP-LC retention time came to 922 s. The molecule `Cc1ccc(-n2cc3c(c(C(=O)Nc4ccc(C)cn4)c2=O)CC(C)(C)CC3=O)cc1` displayed an RP-LC retention time of 961 s. The molecule `O=C(NC1CCCC1)c1ccc(CN2CCN(Cc3ccc(F)cc3)C(=O)C2=O)cc1` had an RP-LC retention time of 768 s.

The molecule `O=C(Nc1nnc(C2CC(=O)N(c3ccccc3)C2)o1)c1cccc(Cl)c1` (centres undefined) came in with an RP-LC retention time of 767 s.

`COc1ccc(Cl)cc1NC(=O)CN1C(=O)CCSc2ccccc21` registered an RP-LC retention time of 956 s.

On to `COc1cc(C2=NN(C(C)=O)C(c3cccnc3)O2)cc(OC)c1OC(C)=O` (centres undefined), for which the RP-LC retention time is 728 s. On to `CCOc1ccc(S(=O)(=O)N2CCc3c(c(-c4nnc(-c5ccc(F)cc5)o4)nn3C)C2)cc1`, for which the RP-LC retention time was found to be 1000 s. `O=C(c1ccc(Br)o1)N1c2ccccc2CC1c1nnc(C2CCOCC2)o1` (centres undefined) registered an RP-LC retention time of 804 s. As for `COc1ccc(NC(=O)N2C[C@@H]3C[C@H](NS(=O)(=O)c4ccccc4)[C@H]2C3)c(OC)c1`, the RP-LC retention time turned out to be 745 s. In turn, `CC(=O)Nc1ccc(S(=O)(=O)N2CCn3cccc3C2c2ccc(F)c(F)c2)cc1` (centres undefined) showed an RP-LC retention time of 857 s. `O=C1NCCOc2ccc(NS(=O)(=O)c3ccc(F)c(Cl)c3)cc21` returned an RP-LC retention time of 685 s. For `Cc1ccc(-c2nnc(CC(=O)NC3CCCCC3)o2)cc1`, the RP-LC retention time is 830 s. Take `CCCOc1cc(N2CCN(C(=O)CC(C)C)CC2)nc(C)n1`: the RP-LC retention time was determined as 597 s.

The molecule `CCOc1nc2ccccc2nc1N1CCCC(C(=O)NCC2CCCO2)C1` (centres undefined) had an RP-LC retention time of 934 s. On to `CC(C)CCNC(=O)C1(C)Cn2nc(C(=O)NC(C)c3ccccc3)cc2C(=O)N1C` (centres undefined), for which the RP-LC retention time stood at 778 s. For the molecule `O=C(NCCCn1c(-c2ccncc2)nc2cccnc21)NCc1ccc(F)cc1`, the RP-LC retention time is 627 s. `Cc1nc(-c2cn(-c3cccc(F)c3)nn2)no1` came in with an RP-LC retention time of 805 s. Then `Cc1ccc(-n2cc3c(c(C(=O)NC4CC4)c2=O)CC(C)(C)CC3=O)cc1`, with 867 s; and `O=C(CSc1ncccn1)N1CCCC1`, with 591 s. For `Cc1ccc(N2C=NS(=O)(=O)c3cccnc32)c(F)c1`, the RP-LC retention time was 801 s. Consider `CCCn1cnc2cc(-c3noc(COc4ccc(F)cc4)n3)ccc21`, for which the RP-LC retention time is 787 s. For the molecule `Cc1ccc(NC(=O)N2CCC(c3nc(C(=O)N4CCCC4)c(C)o3)CC2)cc1F`, the RP-LC retention time turned out to be 835 s. Molecule `CC(C(=O)NCCCN1CCCCCC1)n1c(=O)c(C(F)(F)F)nc2ccccc21` (centres undefined) came in with an RP-LC retention time of 611 s.

On to `CC(C)c1cc(C(=O)NCc2ccc3c(c2)OCO3)nc2cc(-c3ccccn3)nn12`, for which the RP-LC retention time turned out to be 986 s.

Molecule `O=C(c1cccc(Nc2c(-c3ccccc3)nc3cnccn23)c1)N1CCOCC1` registered an RP-LC retention time of 652 s. The molecule `COc1cc(NC(=O)c2cc3c(n(-c4ccc(F)cc4)c2=O)CCCC3=O)cc(OC)c1` gave an RP-LC retention time of 958 s. The molecule `O=C(Nc1ccc(OCc2nnc(-c3ccc(Cl)cc3)o2)cc1)c1cccnc1` yielded an RP-LC retention time of 816 s. As to `Cc1ccc(CNC(=O)C(C)C2CCOCC2)o1` (centres undefined), the RP-LC retention time amounted to 677 s. With `COc1ccc(Cl)cc1NC(=O)C1CCN(S(=O)(=O)c2ccc3c(c2)NC(=O)CO3)CC1`, the RP-LC retention time came out at 880 s.

Take `CCOC(=O)c1[nH]c(C)c(C(=O)C(C)N(C(=O)c2cccc(OC)c2)C2CC2)c1C` (centres undefined): the RP-LC retention time was 879 s.

Regarding `CN(C)S(=O)(=O)c1cc2c(cc1N1CCN(c3ccccn3)CC1)Oc1ccccc1NC2=O`, the RP-LC retention time turned out to be 639 s. Turning to `Cc1ccc(-c2csc(NC(=O)Cc3csc(COc4ccc(Cl)c(C)c4)n3)n2)cc1`, the RP-LC retention time is 1310 s.

`COc1ccc(-c2csc3c(=O)n(CCOc4ccccc4)cnc23)cc1` returned an RP-LC retention time of 1060 s. For the molecule `Cc1cc(CN2CCC(CNC(=O)C(=O)NCc3ccc4c(c3)OCO4)CC2)c(C)o1`, the RP-LC retention time came to 583 s. For the molecule `N#CCCSc1ccccc1NC(=O)c1ccc(C(=O)c2ccccc2)cc1`, the RP-LC retention time was 924 s. In turn, `Cc1cccc(S(=O)(=O)N2C[C@H](c3nc(-c4ccncc4)no3)[C@@H](C)C2)c1` gave an RP-LC retention time of 939 s. The molecule `O=C(Nc1ccc(N2CCN(Cc3ccccc3)C2=O)nc1)C1CCC1` displayed an RP-LC retention time of 737 s.

Regarding `Nc1nc(N)c2cc(Sc3cccc(C(F)(F)F)c3)ccc2n1`, the RP-LC retention time was 686 s. As for `CN(C)c1ncncc1N1CCC(C(=O)N2CCN(c3ccc(Cl)cc3)CC2)CC1`, the RP-LC retention time amounted to 692 s. The molecule `C=CCn1c(=O)c2ccccc2n(Cc2nc(-c3ccc(C)cc3)no2)c1=O` displayed an RP-LC retention time of 1070 s.

`CCn1c(=O)c(N2CCCC(C(=O)NCCc3ccco3)C2)nc2cccnc21` (centres undefined) came in with an RP-LC retention time of 828 s. Take `COc1ccc(N2CC(C(=O)NCc3ccccc3OC)CC2=O)cc1` (centres undefined): the RP-LC retention time was found to be 724 s.

As to `Cc1ccc(-n2c(N3CCCC(C(=O)NCCN4CCCCC4)C3)nc3ccsc3c2=O)cc1` (centres undefined), the RP-LC retention time stood at 617 s. In turn, `O=C1NCCCn2cc(S(=O)(=O)Nc3ccc(C(F)(F)F)cc3)cc21` displayed an RP-LC retention time of 728 s.

With `N#Cc1nc(-c2ccco2)oc1N1CCN(C(=O)c2ccccc2F)CC1`, the RP-LC retention time turned out to be 770 s. Then `Cn1cc(C2c3nccn3CCCN2C(=O)c2cccn2C)cn1` (centres undefined), with 564 s.

Consider `O=C(Cc1ccsc1)NCCn1c(=O)n(Cc2ccccc2)c2cccnc21`, for which the RP-LC retention time worked out at 772 s. On to `COc1ccc(NC(=O)Cn2cccc2-c2nc(-c3ccc4c(c3)OCO4)no2)cc1OC`, for which the RP-LC retention time came out at 1040 s. For `CCCn1c(=O)sc2cc(S(=O)(=O)N3CCC(C(=O)N4CCCCC4)CC3)ccc21`, the RP-LC retention time amounted to 876 s. For `O=C(c1ccccc1)N1CCC(n2c(-c3ccco3)nc3cccnc32)C1` (centres undefined), the RP-LC retention time was 716 s.

As to `CCc1sc(NC(=O)c2cc(Cl)c(NC(C)=O)cc2OC)nc1-c1ccccc1`, the RP-LC retention time was determined as 1170 s. In the case of `O=C(CN1C(=O)CCCc2cc(S(=O)(=O)N3CCCC3)ccc21)Nc1ccc(Cl)cc1`, the RP-LC retention time amounted to 892 s.

Turning to `CCNC(=O)N1CCCN(S(=O)(=O)CC)CC1`, the RP-LC retention time was found to be 582 s.

Regarding `O=C(c1cc(S(=O)(=O)N2CCCC(C(=O)N3CCCCC3)C2)c[nH]1)N1CCCC1` (centres undefined), the RP-LC retention time stood at 716 s. In the case of `COc1ccc(-c2nc(-c3nnn(-c4ccc(F)cc4)c3C)no2)cc1OC`, the RP-LC retention time is 917 s. Under `Clc1ccc(Nc2nnc(Cc3ccncc3)c3ccccc23)cc1` stands 599 s. In turn, `CC(=O)c1cccc(NC(=O)c2cc(C)nc3ccccc23)c1` returned an RP-LC retention time of 654 s. `Cc1ccc(NS(=O)(=O)c2cc(-c3cc(C(F)(F)F)on3)sc2C)cc1`: the RP-LC retention time amounted to 1170 s. In the case of `O=C(O)c1cc(-c2ccccn2)nc2ccc(Br)cc12`, the RP-LC retention time turned out to be 889 s. Molecule `COCCNc1c(-c2ccc(F)cc2)nc2sc(C(=O)N3CCCC3)c(C)n12` came in with an RP-LC retention time of 757 s. For `CCNc1nc(C)cc(N2CCN(C(=O)Nc3ccc(C)c(C)c3)CC2)n1`, the RP-LC retention time stood at 684 s. As to `O=C(NCc1nc(-c2ccc(N3CCCCC3)cc2)no1)c1ccco1`, the RP-LC retention time came out at 777 s.

With `CC1CCCN(c2nn(CC(=O)Nc3cccc(C(C)C)c3)c(=O)c3ccccc23)C1` (centres undefined), the RP-LC retention time was 1300 s. As to `O=c1n(CCOc2ccccc2)nc2ccc(S(=O)(=O)N3CCCC3)cn12`, the RP-LC retention time stood at 842 s. Then `Cc1cc(C)c2c(N3CCSCC3)nc(C(=O)NCc3ccccn3)nc2n1`, with 567 s; and `CCCN(CCC)S(=O)(=O)c1ccc(C(=O)Nc2nc(-c3ccc(OC)cc3)c(C)s2)cc1`, with 1330 s. Turning to `O=C(OCc1cc(-c2ccccc2)on1)c1ccc[nH]c1=O`, the RP-LC retention time stood at 656 s. For `CCOC(=O)N1CCN(C(=O)CSc2ccc(-c3ccco3)nn2)CC1`, the RP-LC retention time stood at 661 s. For `c1cnn(-c2cc(N3CCSCC3)ncn2)c1`, the RP-LC retention time was determined as 833 s.

On to `Cc1nnc2n1CCC(NS(=O)(=O)c1ccccc1F)CC2` (centres undefined), for which the RP-LC retention time worked out at 590 s. The molecule `Cc1ccc(F)c(NS(=O)(=O)c2cc3n(c2)CCN(C)C3=O)c1` displayed an RP-LC retention time of 696 s. Under `Cc1nc2cc(-c3noc(-c4ccc(C)c(F)c4)n3)ccc2o1` stands 1210 s.

(Values after the METLIN SMRT retention time set (Domingo-Almenara et al. 2019).)
